PubChem BioAssay (NCI)
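Growth conditions: 96-well plates. Treatment: test compound, 48 hours, 5 concentrations. Analysis: linear interpolation between bracketing concentrations; unreached endpoints set to highest concentration. GI50 = concentration required for 50% inhibition of growth. TGI is the concentration that stops growth completely.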

What was measured:
Test in all cases: inhibition of tumour cell growth, NCI panel, 48 h
CAKI-1 renal = test system: CAKI-1 renal
KM12 colon = test system: KM12 colon
SR leukemia = test system: SR leukemia
ACHN renal = test system: ACHN renal
IGROV1 ovarian = test system: IGROV1 ovarian
EKVX NSCLC = test system: EKVX NSCLC
SNB-19 CNS = test system: SNB-19 CNS
KM20L2 colon = test system: KM20L2 colon
NCI-H226 lung = test system: NCI-H226 lung
A549 NSCLC = test system: A549 NSCLC
HOP-62 NSCLC = test system: HOP-62 NSCLC
SF-268 CNS = test system: SF-268 CNS
MALME-3M melanoma = test system: MALME-3M melanoma
RPMI-8226 leukemia = test system: RPMI-8226 leukemia
MOLT-4 leukemia = test system: MOLT-4 leukemia
OVCAR-8 ovarian = test system: OVCAR-8 ovarian
SK-MEL-5 melanoma = test system: SK-MEL-5 melanoma
M14 melanoma = test system: M14 melanoma
HOP-92 NSCLC = test system: HOP-92 NSCLC
UO-31 renal = test system: UO-31 renal
OVCAR-3 ovarian = test system: OVCAR-3 ovarian
NCI-H460 lung = test system: NCI-H460 lung
NCI-H522 lung = test system: NCI-H522 lung
NCI-H23 lung = test system: NCI-H23 lung
786-0 renal = test system: 786-0 renal
HCT-15 colon = test system: HCT-15 colon
TK-10 renal = test system: TK-10 renal
OVCAR-4 ovarian = test system: OVCAR-4 ovarian
SK-MEL-28 melanoma = test system: SK-MEL-28 melanoma
COLO 205 colon = test system: COLO 205 colon

CC[C@@]1(O)C(=O)OCc2c1cc1n(c2=O)Cc2cc3c([N+](=O)[O-])c(O)ccc3nc2-1 was tested, and the TGI (CAKI-1 renal) was 8470 nM, the GI50 (KM12 colon) was 1680 nM and the TGI (KM12 colon) was 20900 nM. For the same compound, the TGI (SR leukemia) was under 21.5 nM, the GI50 (ACHN renal) was 51 nM and the TGI (ACHN renal) was 611 nM. It also gave a GI50 (IGROV1 ovarian) of 1040 nM, a TGI (IGROV1 ovarian) of 17300 nM and a GI50 (EKVX NSCLC) of 13300 nM. For the same compound, the TGI (EKVX NSCLC) was over 100000 nM, the GI50 (SNB-19 CNS) was 66.1 nM and the TGI (SNB-19 CNS) was over 27800 nM. For the same compound, the GI50 (KM20L2 colon) was 1970 nM, the TGI (KM20L2 colon) was 38400 nM and the GI50 (NCI-H226 lung) was 1290 nM. For the same compound, the GI50 (A549 NSCLC) was 426 nM, the TGI (A549 NSCLC) was 18300 nM and the GI50 (HOP-62 NSCLC) was 26 nM. It also gave a TGI (HOP-62 NSCLC) of 96.4 nM, a GI50 (SF-268 CNS) of 73 nM and a TGI (SF-268 CNS) of over 22300 nM. The GI50 (MALME-3M melanoma) was 1060 nM, the TGI (MALME-3M melanoma) was 12700 nM and the GI50 (RPMI-8226 leukemia) was 848 nM. The TGI (RPMI-8226 leukemia) was 9390 nM, the GI50 (MOLT-4 leukemia) was 22.7 nM and the TGI (MOLT-4 leukemia) was 188 nM. The GI50 (OVCAR-8 ovarian) was 249 nM, the TGI (OVCAR-8 ovarian) was 12700 nM and the GI50 (SK-MEL-5 melanoma) was 459 nM. It also gave a TGI (SK-MEL-5 melanoma) of 2390 nM, a GI50 (M14 melanoma) of 188 nM and a TGI (M14 melanoma) of 2470 nM. For the same compound, the GI50 (HOP-92 NSCLC) was 1260 nM, the TGI (HOP-92 NSCLC) was 6560 nM and the GI50 (UO-31 renal) was 303 nM. It also gave a TGI (UO-31 renal) of 2300 nM, a GI50 (OVCAR-3 ovarian) of 1600 nM and a TGI (OVCAR-3 ovarian) of 8260 nM. It also gave a GI50 (NCI-H460 lung) of 53 nM, a TGI (NCI-H460 lung) of 1140 nM and a GI50 (NCI-H522 lung) of 132 nM. It also gave a TGI (NCI-H522 lung) of 3070 nM, a GI50 (NCI-H23 lung) of 82.1 nM and a TGI (NCI-H23 lung) of 636 nM. For the same compound, the GI50 (786-0 renal) was 47.7 nM, the TGI (786-0 renal) was 432 nM and the GI50 (HCT-15 colon) was 2710 nM. For the same compound, the TGI (HCT-15 colon) was over 100000 nM, the GI50 (TK-10 renal) was 19500 nM and the TGI (TK-10 renal) was over 85600 nM. The GI50 (OVCAR-4 ovarian) was 2220 nM, the TGI (OVCAR-4 ovarian) was 8730 nM and the GI50 (SK-MEL-28 melanoma) was 2750 nM. The TGI (SK-MEL-28 melanoma) was 35500 nM, the GI50 (COLO 205 colon) was 3560 nM and the TGI (COLO 205 colon) was 27300 nM.
